Measured values taken from patent US20250059141A1, “TLR MODULATOR AND USE THEREOF” (DUALITY BIOLOGICS (SUZHOU) CO., LTD., priority 2021, published 2025).

Each compound was assayed on IFN-α production in human PBMCs (assay: Induction of IFN-α in human PBMCs (ELISA)). Details: PBMC, 24 h, serial 4-fold dilutions, class symbols, read-out: PBMC assay IFNa EC50.
Format: cell-based
Procedure: In this example, the induction activity of the compounds of the present application on human PBMCs for TNF-α and IFN-α production was assessed in human PBMCs (human peripheral blood mononuclear cells). The human PBMCs were purchased from Shanghai Saily Biotechnology Co., Ltd. (Cat. No. XFB—HP100B). PBMC cells were treated with the compounds. The compounds of the present application are diluted in DMSO, for example, to about 15 mM. The reference compound was added to the plates in sequence after diluted to 5 mg/mL. The compounds were serially 3- or 4-fold diluted to 8 concentrations and added to plates in duplicate (Table 2-1 for serial 3-fold dilutions and Table 2-2 for serial 4-fold dilutions). For the negative control wells, DMSO was added at 0.4 μL/well, and a 5 mg/mL reference compound solution was added to the positive control wells at 0.4 μL/well. The final concentration of DMSO was 0.2%. Frozen human PBMCs in cryopreservation tubes were quickly thawed in a 37° C. water bath and transferred into 50-mL centrifuge tubes. Prewarmed RPMI1640 medium was gradually added and the mixture was well mixed and centrifuged for 15 min before the supernatant was discarded. The cells were resuspended in a culture medium and counted. The cell suspension was adjusted to 2.5×10^6 cells/mL with the culture medium. Diluted cells were added at 200 μL/500,000 cells/well in 96-well plates containing the compounds. The cell plates were incubated at 37° C./5% CO2 for 24 h.
The plate was washed 4 times, then the detection antibody was added. […] The plate was washed 4 additional times, then the enzyme was added. […] Termination of reaction: The reaction was terminated by quickly adding the stop solution at 100 μL/well. Plate reading: The reading at wavelength 450 nm was detected by an M2e instrument within 10 min after the termination.
Compound activity data analysis: The OD450 values were converted to TNF-α and IFN-α contents by GraphPad Prism software analysis and fitted to give dose-response curves of the compounds. The EC50 values for the compounds were calculated, where the Emax values are the maximal values for TNF-α and IFN-α.
`CCCN(OCc1ccc(N)cc1OC)C(=O)C1=Cc2ncc(-c3cncc(CO)c3)cc2N=C(N)C1` [Compound 60] was tested, and the EC50 was 50 to 500 nM. `CCCN(OCc1ccc(N)cc1)C(=O)C1=Cc2ccc(C(=O)N[C@@H](C)c3ccccc3)cc2N=C(N)C1` [Compound 77] gave an EC50 of 10 to 50 nM. `CCCN(OCc1ccc(N)cc1)C(=O)C1=Cc2ccc(-c3cncc(S(=O)(=O)N4CC[C@H](O)C4)c3)cc2N=C(N)C1` [Compound 72] was tested, and the EC50 was 10 to 50 nM. With `CCCN(OCc1ccc(N)cc1)C(=O)C1=Cc2ccc(-c3cncc([S+](C)[O-])c3)cc2N=C(N)C1` (stereo not drawn) [Compound 73] the EC50 was no more than 10 nM. `CCCN(OCc1ccc(N)cc1)C(=O)C1=Cc2ccc(-c3cncc(S(=O)(=O)NCCO)c3)cc2N=C(N)C1` [Compound 70] gave an EC50 of 10 to 50 nM. `CCCN(OCc1ccc(N)cc1)C(=O)C1=Cc2ccc(C(=O)N3CCN(c4ccccc4)CC3)cc2N=C(N)C1` [Compound 97] gave an EC50 greater than 500 nM. Work on `CCCN(OCc1ccc(N)cc1)C(=O)C1=Cc2ccc(-c3cncc(S(=O)(=O)N4CCC(O)CC4)c3)cc2N=C(N)C1` [Compound 71] yielded an EC50 of 10 to 50 nM. Compound `CCCN(OCc1ccc(N)cc1)C(=O)C1=Cc2ccc(C(=O)Nc3cccc(CN)c3)cc2N=C(N)C1` [Compound 86] has an EC50 of 50 to 500 nM. With `CCCN(OCc1ccc(N)cc1Cl)C(=O)C1=Cc2ncc(-c3cncc(CO)c3)cc2N=C(N)C1` [Compound 59] the EC50 was 50 to 500 nM. Compound `CCCN(OCc1ccc(N)cc1)C(=O)C1=Cc2ccc(C(=O)Nc3ccn(C)n3)cc2N=C(N)C1` [Compound 88] has an EC50 of 50 to 500 nM. Compound `CCCN(OCc1ccc(N)cc1)C(=O)C1=Cc2ccc(C(=O)NC(C)(C)c3ccccc3)cc2N=C(N)C1` [Compound 76] has an EC50 of 10 to 50 nM. For `CCCN(OCc1ccc(N)cc1)C(=O)C1=Cc2ccc(C(=O)Nc3cncc(OC)c3)cc2N=C(N)C1` [Compound 85], the EC50 was 50 to 500 nM. `CCCN(OCc1ccc(N)cc1)C(=O)C1=Cc2ccc(-c3cccc(S(=O)(=O)N4CCOCC4)c3)cc2N=C(N)C1` [Compound 68] was tested, and the EC50 was 10 to 50 nM. Compound `CCCN(OCc1ccc(N)cc1)C(=O)C1=Cc2ccc(-c3cccc(S(=O)(=O)N4CCNCC4)c3)cc2N=C(N)C1` [Compound 67] has an EC50 greater than 500 nM. `CCCN(OCc1ccc(N)cc1)C(=O)C1=Cc2ccc(C(=O)N3CC(Oc4ccccc4)C3)cc2N=C(N)C1` [Compound 94] gave an EC50 of 50 to 500 nM.

Each compound was assayed against T1, hTLR8 (human Toll-like receptor 8) (Homo sapiens, UniProt Q9NR97) (assay: HEK-Blue hTLR8 reporter assay (QUANTI-Blue, OD650)). Details: HEK-Blue hTLR8 cells, 24 h; class symbols; read-out: Reporter assay TLR8 EC50.
T1 construct: host or cells: HEK-Blue hTLR8 (HEK293-derived reporter cells)
T1 sequence (Q9NR97 27-1041): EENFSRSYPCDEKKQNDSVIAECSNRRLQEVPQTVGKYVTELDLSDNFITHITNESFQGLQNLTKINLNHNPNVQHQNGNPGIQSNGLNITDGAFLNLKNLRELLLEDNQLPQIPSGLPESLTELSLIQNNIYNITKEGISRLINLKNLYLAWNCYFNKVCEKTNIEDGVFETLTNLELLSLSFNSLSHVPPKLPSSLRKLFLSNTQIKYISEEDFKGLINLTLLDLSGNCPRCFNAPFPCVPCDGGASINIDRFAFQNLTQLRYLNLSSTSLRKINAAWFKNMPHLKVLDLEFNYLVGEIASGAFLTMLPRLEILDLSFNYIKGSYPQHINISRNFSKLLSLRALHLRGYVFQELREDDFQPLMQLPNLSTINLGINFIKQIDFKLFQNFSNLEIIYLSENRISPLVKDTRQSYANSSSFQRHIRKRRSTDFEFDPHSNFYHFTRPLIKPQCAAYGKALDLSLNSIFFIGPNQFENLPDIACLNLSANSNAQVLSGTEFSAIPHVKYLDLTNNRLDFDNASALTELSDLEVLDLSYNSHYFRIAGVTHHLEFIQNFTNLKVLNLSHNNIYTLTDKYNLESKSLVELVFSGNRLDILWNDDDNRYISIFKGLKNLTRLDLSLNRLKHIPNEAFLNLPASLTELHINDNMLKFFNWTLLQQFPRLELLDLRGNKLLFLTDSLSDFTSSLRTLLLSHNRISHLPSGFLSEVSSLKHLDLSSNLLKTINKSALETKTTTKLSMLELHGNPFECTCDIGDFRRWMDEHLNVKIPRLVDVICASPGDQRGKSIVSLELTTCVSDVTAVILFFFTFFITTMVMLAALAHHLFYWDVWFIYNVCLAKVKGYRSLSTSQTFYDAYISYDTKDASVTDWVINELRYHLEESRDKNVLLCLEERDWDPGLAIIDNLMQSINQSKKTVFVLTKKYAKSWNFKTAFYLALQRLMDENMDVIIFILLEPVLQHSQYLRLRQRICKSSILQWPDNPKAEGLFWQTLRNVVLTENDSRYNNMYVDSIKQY
Format: cell-based
Procedure: In this example, the agonistic activity of the compounds of the present application on hTLR7 (human Toll-like receptor 7) and hTLR8 (human Toll-like receptor 8) was assessed; the induction activity of the compounds on human PBMCs for TNF-α and IFN-α production was assessed in human PBMCs (human peripheral blood mononuclear cells).
All compounds were formulated in DMSO into 30 mM stock solutions and preserved at 4° C. The reference compound ([…], Cat. No. tlrl-r848-5) was purchased from InvivoGen and formulated into a 5 mg/mL stock solution in DMSO and preserved in a freezer at −20° C. HEK-Blue hTLR7 and HEK-Blue hTLR8 cell lines were purchased from InvivoGen, and human PBMCs were purchased from Shanghai Saily Biotechnology Co., Ltd. (Cat. No. XFB—HP100B).
The major instruments used in this study were multifunctional microplate reader Flexstation III (Molecular Device), Envision (Perkin Elmer), M2e (Molecular Device), and Echo555 (Labcyte). 2.1 Agonistic activity of compounds on hTLR7 (human Toll-like receptor 7) and hTLR8 (human Toll-like receptor 8)
Compound dilution: The compounds of the present application are diluted in DMSO, for example, to about 15 mM. The reference compound was added to the plates in sequence after dilution. The compounds were serially 3-fold diluted to 10 concentrations and added to 96-well plates in duplicate.
For the negative control wells, DMSO was added at 0.2 μL/well, and the reference compound was added to the positive control wells. The final concentration of DMSO was 0.2%.
Cell plating: When an 80% confluence of HEK Blue hTLR7&8 cells in the culture flask was observed under a microscope, the culture medium was discarded, 10 mL of detection medium was added, and the cells were separated by pipetting. The cells were counted on a cytometer and diluted to 500,000 cells/mL. The cells were plated at 100 μL/50,000 cells/well in the 96-well plates containing the compounds. The compounds and cells were co-incubated at 37° C. in a 5% CO2 incubator for 24 hours.
Compound activity detection: 20 μL of cell supernatant was taken from each well and added to a plate containing QUANTI-Blue™ reagent at 180 μL/well. The plate was incubated at 37° C. for 1 hour, and the absorbance at 650 nm (OD650) was measured on the multifunctional microplate reader Flexstation III.
Compound activity data analysis: The OD650 values were analyzed by GraphPad Prism software and fitted to give dose-response curves of the compounds. The EC50 values of compounds were calculated.
With `CCCN(OCc1ccc(N)cc1OC)C(=O)C1=Cc2ncc(-c3cncc(CO)c3)cc2N=C(N)C1` [Compound 60] the EC50 was no more than 10 nM. Work on `CCCN(OCc1ccc(N)cc1)C(=O)C1=Cc2ccc(C(=O)N[C@@H](C)c3ccccc3)cc2N=C(N)C1` [Compound 77] yielded an EC50 of no more than 10 nM. In the case of `CCCN(OCc1ccc(N)cc1)C(=O)C1=Cc2ccc(-c3cncc(S(=O)(=O)N4CC[C@H](O)C4)c3)cc2N=C(N)C1` [Compound 72], the EC50 is reported as no more than 10 nM. Work on `CCCN(OCc1ccc(N)cc1)C(=O)C1=Cc2ccc(-c3cncc([S+](C)[O-])c3)cc2N=C(N)C1` (stereo not drawn) [Compound 73] yielded an EC50 of no more than 10 nM. `CCCN(OCc1ccc(N)cc1)C(=O)C1=Cc2ccc(-c3cncc(S(=O)(=O)NCCO)c3)cc2N=C(N)C1` [Compound 70] was tested, and the EC50 was no more than 10 nM. `CCCN(OCc1ccc(N)cc1)C(=O)C1=Cc2ccc(C(=O)N3CCN(c4ccccc4)CC3)cc2N=C(N)C1` [Compound 97] gave an EC50 of no more than 10 nM. `CCCN(OCc1ccc(N)cc1)C(=O)C1=Cc2ccc(-c3cncc(S(=O)(=O)N4CCC(O)CC4)c3)cc2N=C(N)C1` [Compound 71] was tested, and the EC50 was no more than 10 nM. `CCCN(OCc1ccc(N)cc1)C(=O)C1=Cc2ccc(C(=O)Nc3cccc(CN)c3)cc2N=C(N)C1` [Compound 86] gave an EC50 of no more than 10 nM. Compound `CCCN(OCc1ccc(N)cc1Cl)C(=O)C1=Cc2ncc(-c3cncc(CO)c3)cc2N=C(N)C1` [Compound 59] has an EC50 of no more than 10 nM. Work on `CCCN(OCc1ccc(N)cc1)C(=O)C1=Cc2ccc(C(=O)Nc3ccn(C)n3)cc2N=C(N)C1` [Compound 88] yielded an EC50 of no more than 10 nM. Compound `CCCN(OCc1ccc(N)cc1)C(=O)C1=Cc2ccc(C(=O)NC(C)(C)c3ccccc3)cc2N=C(N)C1` [Compound 76] has an EC50 of no more than 10 nM. In the case of `CCCN(OCc1ccc(N)cc1)C(=O)C1=Cc2ccc(C(=O)Nc3cncc(OC)c3)cc2N=C(N)C1` [Compound 85], the EC50 is reported as no more than 10 nM. `CCCN(OCc1ccc(N)cc1)C(=O)C1=Cc2ccc(-c3cccc(S(=O)(=O)N4CCOCC4)c3)cc2N=C(N)C1` [Compound 68] gave an EC50 of no more than 10 nM. Compound `CCCN(OCc1ccc(N)cc1)C(=O)C1=Cc2ccc(-c3cccc(S(=O)(=O)N4CCNCC4)c3)cc2N=C(N)C1` [Compound 67] has an EC50 of no more than 10 nM. `CCCN(OCc1ccc(N)cc1)C(=O)C1=Cc2ccc(C(=O)N3CC(Oc4ccccc4)C3)cc2N=C(N)C1` [Compound 94] showed an EC50 of no more than 10 nM.
